# Data reported in ChEMBL document CHEMBL5154896, “Discovery of a Novel Class of d-Amino Acid Oxidase Inhibitors Using the Schrödinger Computational Platform” (J Med Chem, 2022).
# pEC50, pIC50: −log10 of the molar value. The source made the active and inactive calls. The calls are words filed in the database; no cut-off is given here.
# Tests used:
# [1] = Oral bioavailability in C57/BL6 mouse at 2 mg/kg by LC-MS-MS analysis; assay type: ADME, organism-based; settings: in vivo
# [2] = Efflux ratio of apparent permeability across basolateral to apical side over apical to basolateral side in MDCK-MDR1 cells; settings: dog
# [3] = Unbound drug concentration in C57Bl/6 mouse brain at 2 mg/kg, po or 0.5 mg/kg,iv by LC-MS-MS analysis; assay type: ADME, organism-based; settings: C57Bl/6, mouse, brain
# [4] = Volume of distribution at steady state in C57/BL6 mouse at 2 mg/kg, po or 0.5 mg/kg,iv by LC-MS-MS analysis; assay type: ADME, organism-based; settings: in vivo
# [5] = molecular target: D-amino-acid oxidase (Homo sapiens, UniProt P14920); assay: Inhibition of recombinant full length human DAO preincubated with compound for 20 mins measured after 4 hrs by Amplex red and horseradish peroxidase based fluorescence assay
# Sequence of D-amino-acid oxidase (Homo sapiens, UniProt P14920) (P14920 whole entry): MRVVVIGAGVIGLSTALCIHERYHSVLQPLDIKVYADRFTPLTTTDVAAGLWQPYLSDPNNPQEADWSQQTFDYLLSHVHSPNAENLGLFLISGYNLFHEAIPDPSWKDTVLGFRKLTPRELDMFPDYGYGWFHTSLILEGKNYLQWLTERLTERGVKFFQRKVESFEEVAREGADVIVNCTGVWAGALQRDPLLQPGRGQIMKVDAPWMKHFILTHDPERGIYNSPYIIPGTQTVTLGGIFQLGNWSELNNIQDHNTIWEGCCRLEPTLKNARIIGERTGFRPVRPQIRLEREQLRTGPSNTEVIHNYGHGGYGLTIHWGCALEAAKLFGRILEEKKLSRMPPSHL
# [6] = Brain to plasma permeability coefficient, Kp in C57Bl/6 mouse 2 mg/kg, po or 0.5 mg/kg,iv by LC-MS-MS analysis; assay type: ADME, organism-based; settings: C57Bl/6, mouse, brain and plasma, read-out: Kp
# [7] = Dose normalized AUC in C57/BL6 mouse at 2 mg/kg, po by LC-MS-MS analysis; assay type: ADME, organism-based; settings: in vivo
# [8] = Unbound drug concentration in C57Bl/6 mouse plasma at 2 mg/kg, po or 0.5 mg/kg,iv by LC-MS-MS analysis; assay type: ADME, organism-based; settings: C57Bl/6, mouse, plasma
# [9] = Half life in C57/BL6 mouse at 0.5 mg/kg,iv by LC-MS-MS analysis; assay type: ADME, organism-based; settings: in vivo
# [10] = Apparent permeability across apical to basolateral membrane in MDCK-MDR1 cells by LC-MS/MS analysis; settings: dog
# [11] = Unbound brain-to-plasma concentration ratio in C57Bl/6 mouse at 2 mg/kg, po or 0.5 mg/kg,iv by LC-MS-MS analysis; assay type: ADME, organism-based; settings: C57Bl/6, mouse, brain and plasma, read-out: K(p,uu,brain)
# [12] = molecular target: T1, Polyunsaturated fatty acid 5-lipoxygenase (Homo sapiens, UniProt P09917); assay: Inhibition of human recombinant 5-LOX incubated for 5 mins by fluorimetry
# T1 sequence (P09917 whole entry): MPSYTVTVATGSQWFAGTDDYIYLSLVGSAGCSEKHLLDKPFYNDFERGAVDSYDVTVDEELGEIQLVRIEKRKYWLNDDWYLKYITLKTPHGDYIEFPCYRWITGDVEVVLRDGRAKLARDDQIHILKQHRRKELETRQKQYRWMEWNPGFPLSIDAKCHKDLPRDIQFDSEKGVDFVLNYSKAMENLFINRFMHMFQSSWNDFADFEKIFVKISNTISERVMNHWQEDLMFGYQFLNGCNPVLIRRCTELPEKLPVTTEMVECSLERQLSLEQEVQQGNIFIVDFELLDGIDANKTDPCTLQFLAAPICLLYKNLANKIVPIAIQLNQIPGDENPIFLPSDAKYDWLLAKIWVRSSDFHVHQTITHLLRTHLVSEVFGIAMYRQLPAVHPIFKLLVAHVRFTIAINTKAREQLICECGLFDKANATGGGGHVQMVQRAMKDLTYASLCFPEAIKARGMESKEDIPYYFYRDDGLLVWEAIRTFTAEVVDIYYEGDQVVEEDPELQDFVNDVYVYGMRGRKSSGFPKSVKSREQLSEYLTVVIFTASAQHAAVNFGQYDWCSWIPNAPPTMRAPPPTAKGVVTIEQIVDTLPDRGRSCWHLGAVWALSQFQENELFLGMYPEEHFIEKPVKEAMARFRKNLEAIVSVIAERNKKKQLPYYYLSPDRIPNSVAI
# [13] = molecular target: T2, Prostaglandin G/H synthase 2 (Homo sapiens, UniProt P35354); assay: Inhibition of human COX2
# T2 sequence (P35354 whole entry): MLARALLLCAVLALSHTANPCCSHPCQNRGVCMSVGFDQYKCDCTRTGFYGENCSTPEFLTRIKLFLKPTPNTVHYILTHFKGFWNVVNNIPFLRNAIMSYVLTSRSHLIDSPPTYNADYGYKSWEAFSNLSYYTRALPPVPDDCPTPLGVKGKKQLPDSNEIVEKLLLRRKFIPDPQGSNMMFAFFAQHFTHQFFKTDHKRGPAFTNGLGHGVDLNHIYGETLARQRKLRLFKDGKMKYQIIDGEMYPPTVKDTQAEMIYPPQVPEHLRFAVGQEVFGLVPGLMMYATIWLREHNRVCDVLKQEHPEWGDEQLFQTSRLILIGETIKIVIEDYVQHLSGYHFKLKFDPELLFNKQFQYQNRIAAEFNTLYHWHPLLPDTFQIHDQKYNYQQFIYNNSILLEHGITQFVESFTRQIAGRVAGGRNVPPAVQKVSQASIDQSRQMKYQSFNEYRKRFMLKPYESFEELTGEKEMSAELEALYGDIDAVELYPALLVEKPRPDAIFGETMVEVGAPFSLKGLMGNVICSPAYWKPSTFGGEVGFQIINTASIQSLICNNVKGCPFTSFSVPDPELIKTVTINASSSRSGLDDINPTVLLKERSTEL
# [14] = molecular target: T3, Adenosine receptor A3 (Homo sapiens, UniProt P0DMS8); assay: Inhibition of recombinant human adenosine A3 GPCR incubated for 120 mins by scintillation counting based radiometry assay
# T3 sequence (P0DMS8 whole entry): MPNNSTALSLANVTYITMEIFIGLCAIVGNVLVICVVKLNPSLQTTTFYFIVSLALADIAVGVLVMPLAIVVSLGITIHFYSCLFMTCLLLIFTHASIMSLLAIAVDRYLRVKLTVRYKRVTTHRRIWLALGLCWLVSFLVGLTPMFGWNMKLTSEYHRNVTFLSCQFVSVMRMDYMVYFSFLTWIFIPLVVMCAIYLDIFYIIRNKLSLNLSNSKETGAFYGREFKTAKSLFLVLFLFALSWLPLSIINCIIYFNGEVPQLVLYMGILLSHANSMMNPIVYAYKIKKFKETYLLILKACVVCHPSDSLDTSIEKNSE
# [15] = molecular target: T4, Peroxisome proliferator-activated receptor gamma (Homo sapiens, UniProt P37231); assay: Inhibition of recombinant human PPAR gamma NHR incubated for 120 mins by scintillation counting based radiometry assay
# T4 sequence (P37231 whole entry): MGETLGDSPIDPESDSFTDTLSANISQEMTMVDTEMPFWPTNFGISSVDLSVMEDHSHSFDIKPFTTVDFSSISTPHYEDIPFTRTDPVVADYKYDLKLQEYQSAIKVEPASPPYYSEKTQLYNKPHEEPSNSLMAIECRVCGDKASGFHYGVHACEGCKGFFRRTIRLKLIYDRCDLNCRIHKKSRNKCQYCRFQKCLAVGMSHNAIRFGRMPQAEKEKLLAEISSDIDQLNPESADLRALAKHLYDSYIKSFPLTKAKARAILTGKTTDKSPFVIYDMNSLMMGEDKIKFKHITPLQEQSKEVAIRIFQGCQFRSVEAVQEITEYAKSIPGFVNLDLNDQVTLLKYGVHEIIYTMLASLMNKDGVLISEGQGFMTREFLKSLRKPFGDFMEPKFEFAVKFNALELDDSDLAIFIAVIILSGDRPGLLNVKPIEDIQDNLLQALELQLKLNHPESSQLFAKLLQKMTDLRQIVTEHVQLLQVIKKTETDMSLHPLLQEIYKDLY
# [16] = molecular target: D-amino-acid oxidase (Mus musculus, UniProt P18894); assay: Inhibition of full length mouse DAO transfected with CHO-K1 cells incubated for 30 mins by Amplex red and horseradish peroxidase based fluorescence assay; assay type: cell-based
# Sequence of D-amino-acid oxidase (Mus musculus, UniProt P18894) (P18894 whole entry): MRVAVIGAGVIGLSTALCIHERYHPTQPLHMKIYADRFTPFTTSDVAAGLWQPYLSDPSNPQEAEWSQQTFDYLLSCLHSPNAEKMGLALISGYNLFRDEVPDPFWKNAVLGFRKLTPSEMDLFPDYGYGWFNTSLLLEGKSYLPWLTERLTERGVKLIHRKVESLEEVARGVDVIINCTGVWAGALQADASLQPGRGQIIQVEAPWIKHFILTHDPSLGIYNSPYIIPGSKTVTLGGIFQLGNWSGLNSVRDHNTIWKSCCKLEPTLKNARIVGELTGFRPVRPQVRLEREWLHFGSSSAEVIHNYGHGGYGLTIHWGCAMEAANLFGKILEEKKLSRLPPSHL
# [17] = molecular target: T5, Glucocorticoid receptor (Homo sapiens, UniProt P04150); assay: Inhibition of GR human glucocorticoid NHR incubated for 360 mins by scintillation counting based radiometry assay
# T5 sequence (P04150 whole entry): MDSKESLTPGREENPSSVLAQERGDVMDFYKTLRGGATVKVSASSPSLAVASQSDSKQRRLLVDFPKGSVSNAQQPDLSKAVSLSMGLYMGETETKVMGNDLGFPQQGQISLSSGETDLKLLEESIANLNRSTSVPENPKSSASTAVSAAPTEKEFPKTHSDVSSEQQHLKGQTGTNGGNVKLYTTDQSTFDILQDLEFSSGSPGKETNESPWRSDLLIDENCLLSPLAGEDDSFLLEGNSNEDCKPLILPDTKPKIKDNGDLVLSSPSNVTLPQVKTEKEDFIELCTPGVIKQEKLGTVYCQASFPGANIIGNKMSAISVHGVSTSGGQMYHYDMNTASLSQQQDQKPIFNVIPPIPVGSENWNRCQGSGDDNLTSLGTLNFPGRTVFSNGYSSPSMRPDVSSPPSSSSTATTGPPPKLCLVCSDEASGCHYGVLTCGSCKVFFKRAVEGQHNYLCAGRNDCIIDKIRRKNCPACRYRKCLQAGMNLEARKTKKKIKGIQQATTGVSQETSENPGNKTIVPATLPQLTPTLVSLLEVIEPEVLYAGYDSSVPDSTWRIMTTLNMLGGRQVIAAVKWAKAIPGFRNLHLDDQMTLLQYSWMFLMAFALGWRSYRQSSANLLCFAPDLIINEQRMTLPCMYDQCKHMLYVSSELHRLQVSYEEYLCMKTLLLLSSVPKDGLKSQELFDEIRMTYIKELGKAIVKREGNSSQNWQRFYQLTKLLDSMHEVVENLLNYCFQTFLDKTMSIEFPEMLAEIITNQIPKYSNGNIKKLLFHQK
# [18] = In vivo receptor occupancy at DAO in C57BL/6 mouse cerebellum at 150 mg/kg, po measured after 6 hrs relative to control; assay type: functional
# [19] = test system: Mus musculus; assay: Effect of compound in C57BL/6 mouse catalepsy model assessed as decrease in plasma prolactin level at 150 mg/kg, po bid administered for every 4 hrs; assay type: functional, organism-based
# [20] = test system: Mus musculus; assay: Effect of compound in C57BL/6 mouse catalepsy model assessed as no catalepsy at 150 mg/kg, po bid administered for every 4 hrs; assay type: functional, organism-based
# [21] = In vivo receptor occupancy at DAO in C57BL/6 mouse cerebellum at 150 mg/kg, po measured after 10 hrs relative to control; assay type: functional
# [22] = In vivo receptor occupancy at DAO in C57BL/6 mouse cerebellum at 150 mg/kg, po measured after 4 hrs relative to control; assay type: functional
compound,measurement,setting,value
O=c1[nH]c2ccsc2[nH]c1=O,bioavailability,[1],34%
same,efflux ratio,[2],0.8
same,fraction unbound,[3],0.26
same,Vdss,[4],0.2 L/kg
same,pIC50,[5],6.92
same,Kp,[6],0.004
same,AUC/dose,[7],6266 ng·h/mL
same,fraction unbound,[8],0.22
same,half-life,[9],1.2 h
same,Papp A→B,[10],8.8 ×10⁻⁶ cm/s
same,Kp uu,[11],0.005
O=c1[nH]cc(CSc2ccc(C(F)F)cc2)[nH]c1=O,pIC50,[12],< 5.00
same,pIC50,[13],< 5.00
same,pIC50,[14],< 5.00
same,pIC50,[15],< 5.00
same,pEC50,[16],6.21
same,pIC50,[17],< 5.00
O=c1[nH]cc(CSc2ccc(C(F)(F)F)cc2)[nH]c1=O,pIC50,[12],< 5.00
same,pIC50,[13],< 5.00
same,pIC50,[14],< 5.00
same,pIC50,[15],< 5.00
same,Activity,[18],86%
same,Activity,[19],Active
same,pEC50,[16],6.29
same,pIC50,[17],< 5.00
same,Activity,[20],Active
same,Activity,[21],59%
same,Activity,[22],75%
